As usually defined, the Ki is a measure of affinity in units of concentration, obtained from inhibition or displacement. Lower therefore signals higher affinity.

The record followed here is ChEMBL document CHEMBL1134308, “Novel tropane-based irreversible ligands for the dopamine transporter” (J Med Chem, 2001).

For the assay, the target named is Sodium-dependent dopamine transporter (Rattus norvegicus, UniProt P23977). The experiment in a line: Displacement of [3H]WIN-35 428 binding at dopamine transporter (DAT) in rat caudate putamen. Type of assay: tissue-based.
Sequence of Sodium-dependent dopamine transporter (P23977 whole entry): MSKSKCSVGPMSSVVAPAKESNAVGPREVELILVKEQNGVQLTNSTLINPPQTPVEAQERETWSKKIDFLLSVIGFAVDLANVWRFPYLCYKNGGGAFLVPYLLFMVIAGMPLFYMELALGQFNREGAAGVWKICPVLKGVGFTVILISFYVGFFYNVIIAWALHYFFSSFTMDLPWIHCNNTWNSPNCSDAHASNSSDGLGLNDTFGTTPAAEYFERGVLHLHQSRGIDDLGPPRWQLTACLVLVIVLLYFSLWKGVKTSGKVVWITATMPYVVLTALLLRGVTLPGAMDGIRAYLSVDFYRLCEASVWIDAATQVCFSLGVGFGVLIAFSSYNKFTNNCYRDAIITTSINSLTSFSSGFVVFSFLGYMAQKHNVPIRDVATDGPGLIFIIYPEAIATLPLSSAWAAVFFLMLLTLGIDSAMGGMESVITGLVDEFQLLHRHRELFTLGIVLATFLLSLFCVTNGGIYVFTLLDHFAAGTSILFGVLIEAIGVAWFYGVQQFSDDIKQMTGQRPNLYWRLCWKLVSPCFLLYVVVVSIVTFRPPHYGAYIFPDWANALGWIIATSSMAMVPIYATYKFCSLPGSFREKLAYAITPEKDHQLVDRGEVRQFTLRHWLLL
Compound `COC(=O)C1C(c2ccc(Cl)cc2)CC2CCC1N2CCCCc1ccc(N=C=S)cc1` (stereo unspecified) showed a Ki of 31.5 nM.
The compound `[N-]=[N+]=Nc1ccc(CCCN2[C@@H]3CC[C@H]2C[C@@H](OC(c2ccc(F)cc2)c2ccc(F)cc2)C3)cc1I` came in with a Ki of 284 nM.
The same measure for `COC(=O)C1C(c2ccc(Cl)cc2)CC2CCC1N2CCCCc1ccc(N=[N+]=[N-])c(I)c1` (stereo unspecified): 33 nM; for `Fc1ccc(C(O[C@H]2C[C@H]3CC[C@@H](C2)N3CCCc2ccc(N=C=S)cc2)c2ccc(F)cc2)cc1`: 611 nM; for `CN1C2CCC1C(C(=O)OCCc1ccc(N=[N+]=[N-])c(I)c1)C(c1ccc(Cl)cc1)C2` (stereo unspecified): 14.5 nM.
With `Fc1ccc(C(O[C@H]2C[C@H]3CC[C@@H](C2)N3CCCCc2ccc(N=C=S)cc2)c2ccc(F)cc2)cc1`, the Ki was found to be 420 nM.
